From publication PMC7486383, “Protrudin and PDZD8 contribute to neuronal integrity by promoting lipid extraction required for endosome maturation” (Nature Communications, 2020)
Where a name gives a salt, the structure may show the parent alone.

Key:
GST-PDZD8(ΔTM) = target: T1, GST-PDZD8(ΔTM) (Mus musculus, UniProt B9EJ80); test: liposome-FRET lipid extraction assay; assay type: binding; conditions: labelled compound; donor liposomes PC/PE/rhodamine-PE; 25 °C
T1 sequence (B9EJ80 25-1147 limits assumed): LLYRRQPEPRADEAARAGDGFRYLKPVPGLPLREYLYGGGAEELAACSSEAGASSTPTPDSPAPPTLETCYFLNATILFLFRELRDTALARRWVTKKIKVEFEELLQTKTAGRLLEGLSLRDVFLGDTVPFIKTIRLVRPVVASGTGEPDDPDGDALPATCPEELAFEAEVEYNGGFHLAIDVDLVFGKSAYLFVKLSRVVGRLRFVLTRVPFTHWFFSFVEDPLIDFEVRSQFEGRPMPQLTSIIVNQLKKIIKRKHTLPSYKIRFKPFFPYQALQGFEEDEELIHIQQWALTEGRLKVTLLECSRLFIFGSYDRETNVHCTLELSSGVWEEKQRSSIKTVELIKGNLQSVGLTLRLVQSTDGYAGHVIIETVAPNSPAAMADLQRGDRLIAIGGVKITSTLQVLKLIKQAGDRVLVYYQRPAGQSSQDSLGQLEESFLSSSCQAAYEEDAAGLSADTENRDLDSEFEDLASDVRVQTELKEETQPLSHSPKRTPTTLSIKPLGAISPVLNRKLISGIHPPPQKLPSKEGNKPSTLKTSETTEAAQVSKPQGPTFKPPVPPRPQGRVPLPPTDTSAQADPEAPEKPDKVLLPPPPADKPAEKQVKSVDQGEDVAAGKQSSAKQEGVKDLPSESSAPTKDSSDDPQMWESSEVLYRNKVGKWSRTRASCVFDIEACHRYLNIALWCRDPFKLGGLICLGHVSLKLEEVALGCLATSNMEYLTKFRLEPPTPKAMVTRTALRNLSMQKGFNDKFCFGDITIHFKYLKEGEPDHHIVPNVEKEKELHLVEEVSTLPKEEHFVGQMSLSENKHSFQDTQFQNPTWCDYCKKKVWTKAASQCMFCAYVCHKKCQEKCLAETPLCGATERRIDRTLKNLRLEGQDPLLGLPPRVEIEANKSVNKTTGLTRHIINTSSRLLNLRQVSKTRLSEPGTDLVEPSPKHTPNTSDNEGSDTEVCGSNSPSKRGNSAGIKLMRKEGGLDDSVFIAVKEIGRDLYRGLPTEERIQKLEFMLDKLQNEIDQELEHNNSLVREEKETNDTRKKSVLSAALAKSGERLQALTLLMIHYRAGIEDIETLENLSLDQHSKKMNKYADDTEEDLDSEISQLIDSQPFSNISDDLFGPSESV

PDZD8(SMP-PDZ) = target: T2, PDZD8(SMP-PDZ) (Mus musculus, UniProt B9EJ80); test: liposome-FRET lipid extraction assay; assay type: binding; conditions: labelled compound; donor liposomes PC/PE/rhodamine-PE; 25 °C
T2 sequence (B9EJ80 87-448 limits assumed): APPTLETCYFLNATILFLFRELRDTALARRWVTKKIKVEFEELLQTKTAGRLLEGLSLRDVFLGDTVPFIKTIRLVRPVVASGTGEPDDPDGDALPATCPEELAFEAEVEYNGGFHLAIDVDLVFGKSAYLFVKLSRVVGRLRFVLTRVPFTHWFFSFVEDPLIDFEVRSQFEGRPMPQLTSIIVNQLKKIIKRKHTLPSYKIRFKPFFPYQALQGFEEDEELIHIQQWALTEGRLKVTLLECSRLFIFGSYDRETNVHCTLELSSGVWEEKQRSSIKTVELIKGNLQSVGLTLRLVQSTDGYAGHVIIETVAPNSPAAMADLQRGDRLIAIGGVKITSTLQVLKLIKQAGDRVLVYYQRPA

CCCCCCCCCCCCCCCC(=O)OC[C@H](COP(=O)(O)OC[C@H](N)C(=O)O)OC(=O)CCCCCCCCCCCNc1ccc([N+](=O)[O-])c2nonc12 [NBD-PS, 1-palmitoyl-2-{12-[(7-nitro-2-1,3-benzoxadiazol-4-yl)amino]dodecanoyl}-sn-glycero-3-phosphoserine (ammonium salt)]
initial velocity of lipid extraction (GST-PDZD8(ΔTM)): with the initial velocity of lipid extraction being greatest for PS | initial velocity of lipid extraction (PDZD8(SMP-PDZ)): The activity of PDZD8(SMP-PDZ) was also about half that of PDZD8(ΔTM)

CCCCCCCCCCCCC/C=C/[C@@H](O)[C@H](CO)NC(=O)CCCCCNc1ccc([N+](=O)[O-])c2nonc12 [C6-NBD-ceramide, N-{6-[(7-nitro-2-1,3-benzoxadiazol-4-yl)amino]hexanoyl}-D-erythro-sphingosine]
initial velocity of lipid extraction (GST-PDZD8(ΔTM)): PDZD8(ΔTM) also showed high extraction activity for ceramide
